Consider one sequence from patent US8247378B2, “Homing peptide for tumor vasculature” (The Chinese University of Hong Kong, priority 2009, dated 2012).

Test [1] has as its system orthotopic colorectal cancer tissue (colon 26). The experiment in a line: In vivo phage targeting assay, orthotopic colorectal cancer model. Further details: species or system BALB/c mice. The following applies: synthetic peptide (300 μg) co-injected with CTPSPFSHC-phage. The procedure: The mice were maintained at Chinese University of Hong Kong Animal Facility.
The model was performed as previously published with some modifications. (See Takahashi T, Morotomi M, and Nomoto K (2004). A novel mouse model of rectal cancer established by orthotopic implantation of colon cancer cells. Cancer Sci 95, 514-519). Briefly, all mice were given the tap water containing 3% dextran sulfate sodium (DSS) for 8 days to induce colitis. Mice were fasted for 18 h (DSS) after colitis induction, and then anesthetized with sodium pentobarbital. Colon 26 cells (3×10^6 cells/40 μl/mouse) were infused intrarectally with a micropipette inserted 2 cm into the anus of the mice. The anus was compressed with a noncrushing microclamp immediately after instillation of tumor cells for 30 min to prevent leakage. Successful models were used for in vivo selection at 2 weeks after implantation of tumor cells.
The assay was as described in Zhang L, Giraudo E, Hoffman J A, Hanahan D, and Ruoslahti E (2006). Lymphatic zip codes in premalignant lesions and tumors. Cancer Res 66, 5696-5706. Briefly, mice bearing tumors were anesthetized and i.v. injected with 1×10^9 pfu CTPSPFSHC-phage or control phage. After 8 minutes, mice were perfused through the heart with DMEM containing 1% BSA. The tumor and control organs were removed from each mouse and the phage was rescued and titered. […]

The next test relates to SW1116 cells. Description: In vitro cell viability assay (MTT assay), SW1116. It is filed as cell-based, human. The following applies: SW1116, 48 h, increasing concentrations. The procedure: (§1) Cell lines and cell culture: The murine colorectal cancer cell colon 26, human colon cancer cell SW1116 were cultured at 37° C. in a humidified atmosphere containing 5% CO2, in RPMI-1640 medium supplemented with 2 g/L sodium bicarbonate, 100 units/ml penicillin, […] streptomycin and 10% FBS.
(§2) In vitro cell viability assay (MTT assay): Cell viability was assessed by MTT assay, which depends on the ability of viable cells to reduce the MTT to a colored formazan product. In brief, cells (10^4 cells per well) were seeded in 96-well microculture plates overnight for attachment, and then incubated with increasing concentrations of the peptides CTPSPFSHC-GG-D(KLAKLAK)2 or CTPSPFSHC (SEQ ID NO:1) or D(KLAKLAK)2 in 100 μl of 1% FBS in DMEM for 6˜48 hours at 37° C. In the next step, MTT was added to each well, and the cells were further incubated for 3 h. The colored formazan product was determined photometrically at 570 nm in a multi-well plate reader (Bio-Rad).
(§3) TCP-1 conjugate and induction of apoptosis in colorectal cancer cells: Next, in order to examine whether the TCP-1 peptide could serve as a drug carrier into cancer cells, we synthesized a chimeric peptide of TCP-1 peptide to a proapoptotic peptide D(KLAKLAK)2, which disrupts mitochondrial membranes upon receptor-mediated cell internalization and causes programmed cell death. Increasing concentrations of TCP-1 conjugate (TCP-GG-D(KLAKLAK)2), equimolar TCP-1 or D(KLAKLAK)2 were incubated with colon 26 or SW1116 cells at 37° C. Cell viability was assessed after 6 h (colon 26) and 48 h (SW1116). The effect of TCP-1 conjugate on the cell viability was determined and compared respectively with TCP-1 or D(KLAKLAK)2 alone.
Background: Formazan colour is commonly taken as a measure of viable cells.

Test [2] relates to orthotopic colorectal tumors. The experiment in a line: Organ level imaging of tumor tissues with FITC-labeled peptide. It counts as in vivo, mice. The following applies: 20 h after injection. The procedure:
Imaging of tissue was done under a blue light, by using the imaging system of KODAK Image Station 2000MM.
To determine whether FITC-labeled TCP-1 accumulated into the tumor tissues can be visualized at the organ level, tumor-bearing mice were injected intravenously with FITC-labeled TCP-1, control peptide or PBS alone. More specifically, tumor-bearing mice were i.v. injected with 500 nmol fluorescein-conjugated peptide (in 500 μl PBS). The peptide was allowed to circulate for 20 hour. The mice were killed, and various tissues were excised and examined for fluorescence. Organ imaging was done under a blue light, by using the imaging system of KODAK Image Station 2000MM.
Further, FITC-labeled TCP-1 could specifically accumulate in the tumor tissues with various volumes (diameter 2 mm, 6 mm, 8 mm tested) (FIG. 5B).

The next test has as its system colon 26 cells. The experiment in a line: In vitro cell viability assay (MTT assay), colon 26. It is filed as cell-based, murine. Particulars: colon 26, 6 h, increasing concentrations. The procedure: as §1, §2, §3

Where no end group is shown, it is not given here.

As for CTPSPFSHC (also: cyclic) [TCP-1], in test [1], the “effect on phage number recovered from control organs (brain, colon)” value is recorded as “not much affected” and the “reduction of phage number recovered from the tumor tissue” value amounted to 95%. The “effect on cell viability” value in the test with SW1116 cells is “no significant effect on cell viability”. In test [2], the “peptide fluorescence in control organs (histological analysis)” value is recorded as “not in the control organs” and the “peptide fluorescence in vasculature of tumor tissue (histological analysis)” value was “remained in the vasculature of tumor tissue”. Further, in the test on colon 26 cells, the “effect on cell viability” value was “no significant effect on cell viability”.
